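Interpolation was linear, between the two tested concentrations surrounding the appropriate level; five concentrations were tested over 48 hours in 96-well plates. GI50: concentration for 50% inhibition of growth.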 The source made the active and inactive calls. Cut-off read from the data, not from the text of the source: active = GI50 up to about 1.1 µM and inactive = higher.
Tests used:
Assay in all cases: NCI tumour cell line growth inhibition, 48 h
HL-60 = system: HL-60
UACC-257 = system: UACC-257
MDA-N = system: MDA-N
HOP-92 = system: HOP-92
SF-295 = system: SF-295
RPMI-8226 = system: RPMI-8226
TK-10 = system: TK-10
MCF7 = system: MCF7
OVCAR-4 = system: OVCAR-4
DU-145 = system: DU-145
SF-539 = system: SF-539
NCI-H226 = system: NCI-H226
A549 = system: A549
K562 = system: K562
NCI-H522 = system: NCI-H522
A498 = system: A498
RXF 393 = system: RXF 393
KM12 = system: KM12
ACHN = system: ACHN
COLO 205 = system: COLO 205
HCC 2998 = system: HCC 2998
LOX IMVI = system: LOX IMVI
U-251 = system: U-251
SW-620 = system: SW-620
IGROV-1 = system: IGROV-1
MOLT-4 = system: MOLT-4
OVCAR-5 = system: OVCAR-5
MDA-MB-231 = system: MDA-MB-231
PC-3 = system: PC-3
UO-31 = system: UO-31
OVCAR-3 = system: OVCAR-3
SF-268 = system: SF-268
NCI-H460 = system: NCI-H460
NCI/ADR-RES = system: NCI/ADR-RES
SK-MEL-2 = system: SK-MEL-2
Hs-578T = system: Hs-578T
SK-MEL-5 = system: SK-MEL-5
SK-OV-3 = system: SK-OV-3
NCI-H23 = system: NCI-H23
786-0 = system: 786-0
SR = system: SR
CCRF-CEM = system: CCRF-CEM
HOP-62 = system: HOP-62
OVCAR-8 = system: OVCAR-8
HT-29 = system: HT-29
SN12C = system: SN12C
SNB-19 = system: SNB-19
HCT-15 = system: HCT-15
SK-MEL-28 = system: SK-MEL-28
UACC-62 = system: UACC-62
CAKI-1 = system: CAKI-1
HCT-116 = system: HCT-116
MDA-MB-435 = system: MDA-MB-435
Malme-3M = system: Malme-3M
M14 = system: M14
BT-549 = system: BT-549
EKVX = system: EKVX
T47D = system: T47D
SNB-75 = system: SNB-75

SMILES: COC(=O)Cc1c([C@H]2[C@H](CC(=O)OC)c3ccccc3N2S(=O)(=O)c2ccc(C)cc2)[nH]c2ccccc12
- GI50 (HL-60): > 100 µM (inactive)
- GI50 (UACC-257): > 100 µM (inactive)
- GI50 (MDA-N): > 100 µM (inactive)
- GI50 (HOP-92): > 100 µM (inactive)
- GI50 (SF-295): > 100 µM (inactive)
- GI50 (RPMI-8226): 7 µM (inactive)
- GI50 (TK-10): > 100 µM (inactive)
- GI50 (MCF7): > 100 µM (inactive)
- GI50 (OVCAR-4): > 100 µM (inactive)
- GI50 (DU-145): > 100 µM (inactive)
- GI50 (SF-539): > 100 µM (inactive)
- GI50 (NCI-H226): > 100 µM (inactive)
- GI50 (A549): > 100 µM (inactive)
- GI50 (K562): 31.4 µM (inactive)
- GI50 (NCI-H522): > 28.4 µM (inactive)
- GI50 (A498): > 100 µM (inactive)
- GI50 (RXF 393): > 100 µM (inactive)
- GI50 (KM12): > 56.9 µM (inactive)
- GI50 (ACHN): > 100 µM (inactive)
- GI50 (COLO 205): > 100 µM (inactive)
- GI50 (HCC 2998): > 100 µM (inactive)
- GI50 (LOX IMVI): > 100 µM (inactive)
- GI50 (U-251): > 100 µM (inactive)
- GI50 (SW-620): > 100 µM (inactive)
- GI50 (IGROV-1): 3.13 µM (inactive)
- GI50 (MOLT-4): 3.4 µM (inactive)
- GI50 (OVCAR-5): > 100 µM (inactive)
- GI50 (MDA-MB-231): > 100 µM (inactive)
- GI50 (PC-3): > 100 µM (inactive)
- GI50 (UO-31): > 100 µM (inactive)
- GI50 (OVCAR-3): > 100 µM (inactive)
- GI50 (SF-268): > 100 µM (inactive)
- GI50 (NCI-H460): > 100 µM (inactive)
- GI50 (NCI/ADR-RES): > 100 µM (inactive)
- GI50 (SK-MEL-2): > 100 µM (inactive)
- GI50 (Hs-578T): > 100 µM (inactive)
- GI50 (SK-MEL-5): > 100 µM (inactive)
- GI50 (SK-OV-3): > 100 µM (inactive)
- GI50 (NCI-H23): > 100 µM (inactive)
- GI50 (786-0): > 100 µM (inactive)
- GI50 (SR): 9.33 µM (inactive)
- GI50 (CCRF-CEM): 18.5 µM (inactive)
- GI50 (HOP-62): > 100 µM (inactive)
- GI50 (OVCAR-8): > 100 µM (inactive)
- GI50 (HT-29): > 100 µM (inactive)
- GI50 (SN12C): > 100 µM (inactive)
- GI50 (SNB-19): > 100 µM (inactive)
- GI50 (HCT-15): > 100 µM
- GI50 (SK-MEL-28): > 100 µM (inactive)
- GI50 (UACC-62): > 100 µM (inactive)
- GI50 (CAKI-1): > 100 µM (inactive)
- GI50 (HCT-116): > 100 µM (inactive)
- GI50 (MDA-MB-435): > 100 µM (inactive)
- GI50 (Malme-3M): 0.208 µM (active)
- GI50 (M14): > 100 µM (inactive)
- GI50 (BT-549): > 100 µM (inactive)

SMILES: COC1(CCO)CC=CCC1(CCO)OC (stereo not drawn)
- GI50 (EKVX): > 100 µM (inactive)
- GI50 (HL-60): > 100 µM (inactive)
- GI50 (UACC-257): > 100 µM (inactive)
- GI50 (MDA-N): > 100 µM (inactive)
- GI50 (HOP-92): > 100 µM (inactive)
- GI50 (SF-295): > 100 µM (inactive)
- GI50 (RPMI-8226): > 100 µM (inactive)
- GI50 (TK-10): > 100 µM (inactive)
- GI50 (MCF7): > 100 µM (inactive)
- GI50 (OVCAR-4): > 100 µM (inactive)
- GI50 (DU-145): > 100 µM (inactive)
- GI50 (NCI-H226): > 100 µM (inactive)
- GI50 (A549): > 100 µM (inactive)
- GI50 (K562): > 100 µM (inactive)
- GI50 (T47D): > 100 µM (inactive)
- GI50 (NCI-H522): > 100 µM (inactive)
- GI50 (KM12): > 100 µM (inactive)
- GI50 (ACHN): > 100 µM (inactive)
- GI50 (COLO 205): > 100 µM (inactive)
- GI50 (LOX IMVI): > 100 µM (inactive)
- GI50 (SW-620): > 100 µM (inactive)
- GI50 (IGROV-1): > 100 µM (inactive)
- GI50 (MOLT-4): > 100 µM (inactive)
- GI50 (OVCAR-5): > 100 µM (inactive)
- GI50 (PC-3): > 100 µM (inactive)
- GI50 (UO-31): > 100 µM (inactive)
- GI50 (OVCAR-3): > 100 µM (inactive)
- GI50 (SF-268): > 100 µM (inactive)
- GI50 (NCI-H460): > 100 µM (inactive)
- GI50 (NCI/ADR-RES): > 100 µM (inactive)
- GI50 (SK-MEL-2): > 100 µM (inactive)
- GI50 (Hs-578T): > 100 µM (inactive)
- GI50 (SK-MEL-5): > 100 µM (inactive)
- GI50 (SK-OV-3): > 100 µM (inactive)
- GI50 (786-0): > 100 µM (inactive)
- GI50 (CCRF-CEM): > 100 µM (inactive)
- GI50 (HOP-62): > 100 µM (inactive)
- GI50 (OVCAR-8): > 100 µM (inactive)
- GI50 (HT-29): > 100 µM (inactive)
- GI50 (SN12C): > 100 µM (inactive)
- GI50 (SNB-19): > 100 µM (inactive)
- GI50 (HCT-15): > 100 µM
- GI50 (SK-MEL-28): > 100 µM (inactive)
- GI50 (UACC-62): > 100 µM (inactive)
- GI50 (CAKI-1): > 100 µM (inactive)
- GI50 (SNB-75): > 100 µM (inactive)
- GI50 (HCT-116): > 100 µM (inactive)
- GI50 (Malme-3M): > 100 µM (inactive)
- GI50 (M14): > 100 µM (inactive)
- GI50 (BT-549): > 100 µM (inactive)

SMILES: COc1cc(C(c2ccccc2)N2C(=O)CC[C@H]2C(=O)O)cc(OC)c1OC (stereo partly drawn)
- GI50 (EKVX): > 100 µM (inactive)
- GI50 (HL-60): > 100 µM (inactive)
- GI50 (UACC-257): > 100 µM (inactive)
- GI50 (MDA-N): > 100 µM (inactive)
- GI50 (HOP-92): > 100 µM (inactive)
- GI50 (SF-295): > 100 µM (inactive)
- GI50 (RPMI-8226): > 100 µM (inactive)
- GI50 (TK-10): > 100 µM (inactive)
- GI50 (MCF7): > 100 µM (inactive)
- GI50 (OVCAR-4): > 100 µM (inactive)
- GI50 (DU-145): > 100 µM (inactive)
- GI50 (SF-539): > 100 µM (inactive)
- GI50 (NCI-H226): > 100 µM (inactive)
- GI50 (A549): > 100 µM (inactive)
- GI50 (K562): > 100 µM (inactive)
- GI50 (T47D): > 100 µM (inactive)
- GI50 (NCI-H522): > 100 µM (inactive)
- GI50 (A498): > 100 µM (inactive)
- GI50 (KM12): > 100 µM (inactive)
- GI50 (ACHN): > 100 µM (inactive)
- GI50 (COLO 205): > 100 µM (inactive)
- GI50 (HCC 2998): > 100 µM (inactive)
- GI50 (LOX IMVI): > 100 µM (inactive)
- GI50 (U-251): > 100 µM (inactive)
- GI50 (SW-620): > 100 µM (inactive)
- GI50 (IGROV-1): > 100 µM (inactive)
- GI50 (MOLT-4): > 100 µM (inactive)
- GI50 (OVCAR-5): > 100 µM (inactive)
- GI50 (PC-3): > 100 µM (inactive)
- GI50 (UO-31): > 100 µM (inactive)
- GI50 (OVCAR-3): > 100 µM (inactive)
- GI50 (SF-268): > 100 µM (inactive)
- GI50 (NCI-H460): > 100 µM (inactive)
- GI50 (NCI/ADR-RES): > 100 µM (inactive)
- GI50 (SK-MEL-2): > 100 µM (inactive)
- GI50 (Hs-578T): > 100 µM (inactive)
- GI50 (SK-MEL-5): > 100 µM (inactive)
- GI50 (SK-OV-3): > 100 µM (inactive)
- GI50 (NCI-H23): > 100 µM (inactive)
- GI50 (786-0): > 100 µM (inactive)
- GI50 (SR): > 100 µM (inactive)
- GI50 (CCRF-CEM): > 100 µM (inactive)
- GI50 (HOP-62): > 100 µM (inactive)
- GI50 (OVCAR-8): > 100 µM (inactive)
- GI50 (HT-29): > 100 µM (inactive)
- GI50 (SN12C): > 100 µM (inactive)
- GI50 (SNB-19): > 100 µM (inactive)
- GI50 (HCT-15): > 100 µM
- GI50 (SK-MEL-28): > 100 µM (inactive)
- GI50 (UACC-62): > 100 µM (inactive)
- GI50 (CAKI-1): > 100 µM (inactive)
- GI50 (SNB-75): > 100 µM (inactive)
- GI50 (HCT-116): > 100 µM (inactive)
- GI50 (MDA-MB-435): > 100 µM (inactive)
- GI50 (Malme-3M): > 100 µM (inactive)
- GI50 (M14): > 100 µM (inactive)
- GI50 (BT-549): > 100 µM (inactive)
